In PubChem BioAssay (NCI):
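Cells were grown in 96-well plates and exposed to each compound for 48 hours at five concentrations; endpoints were interpolated linearly between bracketing concentrations, or set to the highest concentration if not reached. TGI: concentration producing complete growth inhibition.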

What was measured:
Assay in all cases: DTP human tumour cell line panel, 48 h
NCI-H226 lung = tested on: NCI-H226 lung
SNB-75 CNS = tested on: SNB-75 CNS
NCI-H460 lung = tested on: NCI-H460 lung
HCC-2998 colon = tested on: HCC-2998 colon
TK-10 renal = tested on: TK-10 renal
BT-549 breast = tested on: BT-549 breast
K-562 leukemia = tested on: K-562 leukemia
SW-620 colon = tested on: SW-620 colon
SN12C renal = tested on: SN12C renal
MCF7 breast = tested on: MCF7 breast
KM12 colon = tested on: KM12 colon
HS 578T breast = tested on: HS 578T breast
T-47D breast = tested on: T-47D breast
A549 NSCLC = tested on: A549 NSCLC
UACC-257 melanoma = tested on: UACC-257 melanoma
A498 renal = tested on: A498 renal
MALME-3M melanoma = tested on: MALME-3M melanoma
CCRF-CEM leukemia = tested on: CCRF-CEM leukemia
SF-295 CNS = tested on: SF-295 CNS
SF-539 CNS = tested on: SF-539 CNS

| SMILES | TGI (NCI-H226 lung) | TGI (SNB-75 CNS) | TGI (NCI-H460 lung) | TGI (HCC-2998 colon) | TGI (TK-10 renal) | TGI (BT-549 breast) | TGI (K-562 leukemia) | TGI (SW-620 colon) | TGI (SN12C renal) | TGI (MCF7 breast) | TGI (KM12 colon) | TGI (HS 578T breast) | TGI (T-47D breast) | TGI (A549 NSCLC) | TGI (UACC-257 melanoma) | TGI (A498 renal) | TGI (MALME-3M melanoma) | TGI (CCRF-CEM leukemia) | TGI (SF-295 CNS) | TGI (SF-539 CNS) |
| --- | --- | --- | --- | --- | --- | --- | --- | --- | --- | --- | --- | --- | --- | --- | --- | --- | --- | --- | --- | --- |
| CCOC(=O)c1c(N)sc2c1C(C(=O)OCC)CC2 (stereo not drawn) | > 100 µM | > 100 µM | > 100 µM | > 100 µM | > 100 µM | > 100 µM | > 100 µM | > 100 µM | > 100 µM | > 100 µM | > 100 µM | > 100 µM | > 100 µM | > 100 µM | > 100 µM | 82.1 µM | > 100 µM |  |  |  |
| CC(=O)N1C(Nc2ccccn2)CCN1c1ccccc1 (stereo not drawn) | > 10 µM | > 10 µM | > 10 µM | > 10 µM | > 10 µM | > 10 µM | > 10 µM | > 10 µM | > 10 µM | > 10 µM |  | > 10 µM | > 10 µM | > 10 µM | > 10 µM |  | > 10 µM | > 10 µM | > 10 µM | > 10 µM |
| Cc1ccc(C2=Nc3cccc4cccc(c34)N2)cc1 | > 100 µM | > 100 µM | > 100 µM | > 100 µM | > 100 µM | > 100 µM | > 100 µM | > 100 µM | > 100 µM | > 100 µM | > 100 µM | > 100 µM | > 100 µM | > 100 µM | > 100 µM |  | > 100 µM | > 100 µM | > 100 µM | > 100 µM |
| NC(=O)c1cc2cc(Cl)cc(Cl)c2oc1=Nc1ccc(F)cc1 | 43.5 µM | 30.3 µM | 35.5 µM | 48.9 µM | 30 µM | 37 µM | 27.5 µM | > 100 µM | 38 µM | 45.1 µM | > 100 µM | > 100 µM | 73.5 µM | 70.1 µM | 42.8 µM | 35.3 µM | 43 µM | > 100 µM | 39.3 µM |  |
| COC(=O)C(CC12CC3CC(CC(C3)C1)C2)NC(=O)C(N)CC(=O)O (stereo not drawn) |  | > 100 µM | > 100 µM | > 100 µM | > 100 µM | > 100 µM | > 100 µM | > 100 µM | > 100 µM |  | > 100 µM | > 100 µM | > 100 µM | > 100 µM | > 100 µM |  |  | > 100 µM | > 100 µM |  |
| O=C(/C=C/c1csc(-c2ccccc2)n1)NCc1ccc(C(=O)NCCc2ccccc2)cc1 | 90.2 µM | 8.31 µM | > 100 µM | > 100 µM | 38.2 µM | > 100 µM | > 100 µM | > 100 µM | > 100 µM | > 100 µM | > 100 µM | > 100 µM | > 100 µM | > 100 µM | > 100 µM | 64.8 µM | > 100 µM | > 100 µM | 30.9 µM |  |
| CCCCCCCCCCCC(=O)Oc1c(Cl)cc(Cl)c(OC(=O)C(=O)Oc2c(Cl)cc(Cl)c(OC(=O)CCCCCCCCCCC)c2Cl)c1Cl |  | > 100 µM | > 100 µM |  | > 100 µM | > 100 µM |  | > 100 µM | > 100 µM | > 100 µM | > 100 µM | > 100 µM | > 100 µM | > 100 µM | > 100 µM |  | > 100 µM | > 100 µM | > 100 µM |  |
| C=CCOc1ccc(/C(N=Nc2ccc(Cl)cc2)=N/NC(=O)c2ccccc2)cc1OC | > 100 µM | > 100 µM | > 100 µM | > 100 µM | > 100 µM | 70.3 µM |  | > 100 µM | > 100 µM | > 100 µM | > 100 µM | > 100 µM | 61.6 µM | > 100 µM | > 100 µM | > 100 µM | > 100 µM | 86.9 µM | > 100 µM |  |
| N#CC12C(=O)N3C(=NC(c4ccccc4)NC3c3ccccc3)C1(C#N)C(c1ccccc1)NC1=C2CCC1 (stereo not drawn) | > 100 µM | > 100 µM | > 100 µM | > 100 µM | > 100 µM | > 100 µM | > 100 µM | > 100 µM | > 100 µM | > 100 µM | > 100 µM | > 100 µM | > 100 µM | > 100 µM | > 100 µM | > 100 µM | > 100 µM | > 100 µM | > 100 µM |  |
| CC12CCC(CC1=O)C2(C)CCC(N)=O (stereo not drawn) | > 100 µM |  |  | > 100 µM | > 100 µM | > 100 µM | > 100 µM | > 100 µM | > 100 µM | > 100 µM | > 100 µM | > 100 µM | > 100 µM | > 100 µM | > 100 µM | > 100 µM | > 100 µM | > 100 µM | > 100 µM |  |
| N=c1oc2cc(O)ccc2cc1C(=O)NCc1ccccc1 | > 100 µM | 43.8 µM | > 100 µM |  | > 100 µM | 71.1 µM | 28.2 µM | 81.6 µM | 48.8 µM | > 100 µM | > 100 µM | 45.4 µM | 33.7 µM | > 100 µM | > 100 µM |  | 58.7 µM | 45 µM | > 100 µM | 63.3 µM |
| CCOC(=O)C1=[N+]([O-])OC2=C(O)CCCC21 (stereo not drawn) | > 100 µM | > 100 µM | > 100 µM | > 100 µM | > 100 µM | > 100 µM | > 100 µM | > 100 µM | > 100 µM | > 100 µM | > 100 µM | > 100 µM | > 100 µM | > 100 µM | > 100 µM | > 100 µM | > 100 µM | > 100 µM | > 100 µM |  |
